Laboratory results reported in patent US20050095240A1, “NaCT as a target for lifespan expansion and weight reduction” (Medical College of Georgia Research, priority 2002, published 2005).
Read-outs that look alike come from different tables or passages of the source.

Key:
rat NaCT [1] = target: T1, rat NaCT (Rattus norvegicus, UniProt Q8CJ44); assay: Uptake via rat NaCT expressed in HRPE cells; type: cell-based
T1 sequence (Q8CJ44 1-572): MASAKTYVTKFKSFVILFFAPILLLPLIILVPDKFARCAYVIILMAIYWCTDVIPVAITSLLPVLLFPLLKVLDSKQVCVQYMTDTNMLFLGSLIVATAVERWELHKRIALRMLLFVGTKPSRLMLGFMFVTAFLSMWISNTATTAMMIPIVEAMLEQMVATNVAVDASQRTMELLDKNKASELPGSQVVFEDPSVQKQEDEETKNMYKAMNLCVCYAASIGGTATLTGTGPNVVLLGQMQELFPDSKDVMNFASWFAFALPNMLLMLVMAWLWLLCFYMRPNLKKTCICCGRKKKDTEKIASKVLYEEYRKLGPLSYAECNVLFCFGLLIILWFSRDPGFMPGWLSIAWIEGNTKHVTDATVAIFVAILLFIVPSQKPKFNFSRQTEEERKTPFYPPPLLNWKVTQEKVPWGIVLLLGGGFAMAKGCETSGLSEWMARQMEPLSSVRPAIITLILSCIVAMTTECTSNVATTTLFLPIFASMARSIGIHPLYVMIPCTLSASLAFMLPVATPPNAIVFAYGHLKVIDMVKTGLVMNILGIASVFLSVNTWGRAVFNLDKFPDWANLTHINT

mouse NaCT = target: T2, mouse NaCT (Mus musculus, UniProt Q67BT3); assay: Transport via mouse NaCT expressed in HRPE cells; type: cell-based
T2 sequence (Q67BT3 1-572): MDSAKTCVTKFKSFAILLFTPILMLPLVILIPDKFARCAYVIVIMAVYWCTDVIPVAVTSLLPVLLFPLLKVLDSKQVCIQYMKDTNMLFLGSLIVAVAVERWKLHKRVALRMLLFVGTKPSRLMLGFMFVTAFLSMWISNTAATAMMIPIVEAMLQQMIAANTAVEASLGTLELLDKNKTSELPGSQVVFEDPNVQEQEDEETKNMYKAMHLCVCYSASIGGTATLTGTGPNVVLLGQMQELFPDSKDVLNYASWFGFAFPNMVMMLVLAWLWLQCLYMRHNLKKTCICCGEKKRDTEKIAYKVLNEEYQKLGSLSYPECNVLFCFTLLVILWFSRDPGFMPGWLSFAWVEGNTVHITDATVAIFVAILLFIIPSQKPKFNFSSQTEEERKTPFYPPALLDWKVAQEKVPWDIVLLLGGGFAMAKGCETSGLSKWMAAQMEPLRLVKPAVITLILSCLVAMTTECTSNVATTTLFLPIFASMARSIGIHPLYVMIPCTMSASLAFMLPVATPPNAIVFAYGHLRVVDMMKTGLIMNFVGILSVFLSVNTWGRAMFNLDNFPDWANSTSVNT

ceNaCT = target: T3, ceNaCT (Caenorhabditis elegans, UniProt P32739, I91S/L182M); assay: Uptake via ceNaCT expressed in HRPE cells
T3 sequence (P32739 1-551 I91S/L182M): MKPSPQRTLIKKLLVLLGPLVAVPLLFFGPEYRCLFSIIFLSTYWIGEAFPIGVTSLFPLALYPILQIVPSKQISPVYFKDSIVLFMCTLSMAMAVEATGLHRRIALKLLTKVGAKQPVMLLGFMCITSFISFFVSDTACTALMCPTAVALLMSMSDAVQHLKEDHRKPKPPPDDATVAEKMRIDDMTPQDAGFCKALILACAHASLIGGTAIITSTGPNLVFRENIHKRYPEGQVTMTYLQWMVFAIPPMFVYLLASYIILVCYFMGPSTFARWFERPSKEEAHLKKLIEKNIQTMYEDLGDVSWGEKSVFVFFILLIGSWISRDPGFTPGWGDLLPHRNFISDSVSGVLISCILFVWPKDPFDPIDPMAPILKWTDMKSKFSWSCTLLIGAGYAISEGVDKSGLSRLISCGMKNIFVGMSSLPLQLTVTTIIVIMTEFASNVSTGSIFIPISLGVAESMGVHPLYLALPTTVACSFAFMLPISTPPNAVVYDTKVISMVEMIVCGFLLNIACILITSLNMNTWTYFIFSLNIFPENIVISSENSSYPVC

human NaCT = human NaCT (Homo sapiens, UniProt Q86YT5); assay: Uptake via human NaCT expressed in HRPE cells; type: cell-based
Sequence of human NaCT (Q86YT5 whole entry): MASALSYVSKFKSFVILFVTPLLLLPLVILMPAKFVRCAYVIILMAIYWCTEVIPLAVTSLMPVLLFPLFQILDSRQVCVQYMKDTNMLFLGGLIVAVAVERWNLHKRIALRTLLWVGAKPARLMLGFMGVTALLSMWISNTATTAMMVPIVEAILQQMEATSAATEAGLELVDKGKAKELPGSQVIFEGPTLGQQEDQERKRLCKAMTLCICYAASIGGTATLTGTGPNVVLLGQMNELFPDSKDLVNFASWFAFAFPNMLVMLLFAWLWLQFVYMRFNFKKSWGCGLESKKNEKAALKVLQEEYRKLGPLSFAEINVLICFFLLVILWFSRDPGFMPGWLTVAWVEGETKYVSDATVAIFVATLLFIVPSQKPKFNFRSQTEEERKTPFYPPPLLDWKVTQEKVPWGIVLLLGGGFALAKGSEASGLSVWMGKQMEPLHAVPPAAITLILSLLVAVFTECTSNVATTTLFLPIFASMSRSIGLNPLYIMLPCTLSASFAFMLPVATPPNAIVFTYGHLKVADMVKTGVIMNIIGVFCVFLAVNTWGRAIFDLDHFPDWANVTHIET

drIndy = drIndy (Drosophila melanogaster, UniProt Q9VVT2); details: for cDNA-specific [^3H] succinate uptake: pH 7.5
Sequence of drIndy (Q9VVT2 19-590): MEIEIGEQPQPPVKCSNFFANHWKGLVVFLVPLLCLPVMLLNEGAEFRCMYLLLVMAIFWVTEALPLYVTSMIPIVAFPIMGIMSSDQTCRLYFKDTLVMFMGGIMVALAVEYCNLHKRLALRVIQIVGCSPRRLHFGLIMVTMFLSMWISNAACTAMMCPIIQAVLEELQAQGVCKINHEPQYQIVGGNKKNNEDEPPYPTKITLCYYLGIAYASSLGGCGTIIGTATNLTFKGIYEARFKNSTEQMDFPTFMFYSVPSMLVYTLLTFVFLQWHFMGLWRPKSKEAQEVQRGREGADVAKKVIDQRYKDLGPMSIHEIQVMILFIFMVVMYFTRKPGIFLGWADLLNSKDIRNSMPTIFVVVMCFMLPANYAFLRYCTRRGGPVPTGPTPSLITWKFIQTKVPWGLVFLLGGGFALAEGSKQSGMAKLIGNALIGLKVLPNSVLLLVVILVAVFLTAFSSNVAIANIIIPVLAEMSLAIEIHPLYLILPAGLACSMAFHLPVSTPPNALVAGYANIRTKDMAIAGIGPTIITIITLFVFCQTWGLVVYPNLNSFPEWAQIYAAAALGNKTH

zebrafish NaCT = zebrafish NaCT (Danio rerio, UniProt A0A2R8QQN0, K78Q); assay: Citrate uptake via zebrafish NaCT expressed in HRPE cells; type: cell-based; details: Li+ 2 mM, valproate 0.6 μM, carbamazepine 50 μM; 30 min
Sequence of zebrafish NaCT (A0A2R8QQN0 2-582 K78Q): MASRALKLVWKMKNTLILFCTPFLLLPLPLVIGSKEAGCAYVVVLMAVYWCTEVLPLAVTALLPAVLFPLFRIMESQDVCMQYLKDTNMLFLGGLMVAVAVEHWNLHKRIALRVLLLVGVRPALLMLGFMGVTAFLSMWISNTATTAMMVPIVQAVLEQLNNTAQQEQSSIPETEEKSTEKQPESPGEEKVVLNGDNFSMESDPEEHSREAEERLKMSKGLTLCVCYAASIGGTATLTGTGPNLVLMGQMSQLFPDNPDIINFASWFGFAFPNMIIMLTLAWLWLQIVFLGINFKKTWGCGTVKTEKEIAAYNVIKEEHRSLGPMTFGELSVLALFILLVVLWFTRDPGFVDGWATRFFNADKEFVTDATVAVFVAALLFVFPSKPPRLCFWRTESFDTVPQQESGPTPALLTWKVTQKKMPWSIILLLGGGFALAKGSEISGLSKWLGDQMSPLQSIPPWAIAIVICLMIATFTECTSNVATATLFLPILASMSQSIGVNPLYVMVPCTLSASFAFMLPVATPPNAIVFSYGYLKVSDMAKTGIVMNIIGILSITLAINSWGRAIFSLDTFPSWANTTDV

NaCT in HepG2 cells = target: T4, NaCT in HepG2 cells (Homo sapiens, UniProt Q86YT5); assay: Citrate uptake in HepG2 cells (constitutively expressed NaCT); type: cell-based
T4 construct: the effect of Li^+ on constitutively expressed NaCT in human liver cells was studied; host or cells: HepG2
T4 sequence (Q86YT5 whole entry): as the sequence (Q86YT5 whole entry) above
Experimental: Uptake measurement in human liver cell lines. The human liver cell lines (HepG2 and Huh-7) were cultured to confluency in 24-well culture plates using appropriate culture medium. The HepG2 cell line was obtained from American Type Culture Collection (Manasses, Va.). The Huh-7 cell line (Bode et al., (2002) Am. J. Physiol. 283, G1062-G1073) was provided by Dr. Barrie P. Bode (St. Louis University, St. Louis, Mo.). Uptake measurements in monolayer cultures of these cells were measured as described above for the heterologously expressed NaCTs.

[2] = patients under treatment; cited from earlier work
rat NaCT [3] = target: T1, rat NaCT; assay: Rat NaCT in X. laevis oocytes, voltage clamp and charge-to-substrate ratio; type: cell-based; details: substrate 0.5 mM
[4] = Li+ 2 mM, valproate 0.6 μM, carbamazepine 50 μM

Which results are given for `O=C(O)/C=C\C(=O)O` [Maleate]?
[^14C]Citrate uptake (cDNA-specific) (rat NaCT [1]): 78.8 ± 1.5 Pmol/10^6 cells/min; [^14C]Citrate uptake, % (rat NaCT [1]): 73%; [^3H]-Succinate transport (NaCT-specific) (mouse NaCT): 0.165 ± 0.014 pmol/10^6 cells/min; [^3H]-Succinate transport, % (mouse NaCT): 113%; [^14C]-Citrate transport (NaCT-specific) (mouse NaCT): 31.2 ± 2.5 pmol/10^6 cells/min; [^14C]-Citrate transport, % (mouse NaCT): 82%; Competition with [^14C]citrate for ceNaCT-mediated uptake (ceNaCT): failed to compete with citrate; [^14C]-Citrate Uptake (cDNA-specific) (human NaCT): 58.0 ± 6.7 pmol/10^6 cells/min; [^14C]-Citrate Uptake, % (human NaCT): 121%; % Control of cDNA-specific [^3H]succinate uptake (drIndy): 85%; cDNA-specific [^3H] succinate uptake (drIndy): 123.1 ± 7.6 fmol/106 cells per min

Which results are given for `O=C(O)CC(=O)O` [Malonate, malonate]?
Competition with [^14C]citrate for ceNaCT-mediated uptake (ceNaCT): failed to inhibit the uptake of citrate; [^14C]-Citrate Uptake (cDNA-specific) (human NaCT): 57.3 ± 3.2 pmol/10^6 cells/min; [^14C]-Citrate Uptake, % (human NaCT): 120%; % Control of cDNA-specific [^3H]succinate uptake (drIndy): 71%; cDNA-specific [^3H] succinate uptake (drIndy): 98.8 ± 7.1 fmol/106 cells per min

Which results are given for `CCCC(CCC)C(=O)O` [Valproate, valproate]?
Citrate uptake, rNaCT, percent of corresponding control (rat NaCT [1]; [4]): 96%; Citrate uptake, zfNaCT, percent of corresponding control (zebrafish NaCT): 93.2%; Citrate uptake, mNaCT, percent of corresponding control (mouse NaCT; [4]): 100%; Citrate uptake, HepG2 cells, percent of corresponding control (NaCT in HepG2 cells; [4]): 105%; Citrate uptake, ceNaCT, percent of corresponding control (ceNaCT; [4]): 106%; Plasma concentrations / therapeutic plasma levels in humans [2]: 300 to 600 µM; Citrate uptake, hNaCT, percent of corresponding control (human NaCT; [4]): 111%

Which results are given for `O=C(O)/C=C(/CC(=O)O)C(=O)O` [cis-Aconitate, cis-aconitate]?
[^3H]-Succinate transport (NaCT-specific) (mouse NaCT; [3H]-succinate 0.1 μM, substrate analog 2 mM): 0.062 ± 0.005 pmol/10^6 cells/min; [^3H]-Succinate transport, % (mouse NaCT; [3H]-succinate 0.1 μM, substrate analog 2 mM, control = 100): 43%; [^14C]-Citrate transport (NaCT-specific) (mouse NaCT; [14C]-citrate 10 μM, substrate analog 2 mM): 18.1 ± 1.8 pmol/10^6 cells/min; [^14C]-Citrate transport, % (mouse NaCT; [14C]-citrate 10 μM, substrate analog 2 mM, control = 100): 47%; Competition with [^14C]citrate for ceNaCT-mediated uptake (ceNaCT; competitor 2.5 mM, [14C]citrate 15 μM): did not compete with [^14C]citrate as effectively as unlabelled citrate; Substrate-induced currents as % of citrate-induced currents (rat NaCT [3]): approximately 10%; [^14C]-Citrate Uptake (cDNA-specific) (human NaCT; [14C]-citrate 20 μM, unlabeled compound 2.5 mM): 55.5 ± 3.3 pmol/10^6 cells/min; [^14C]-Citrate Uptake, % (human NaCT; [14C]-citrate 20 μM, unlabeled compound 2.5 mM, none = 100): 116%

With tunicamycin as the compound, how does the “Effect on NaCT activity in HepG2 cells” value (NaCT in HepG2 cells; treatment of HepG2 cells with tunicamycin) read?
Its value is “significant inhibition”.
